Our source for the melting point values is patent US7179823B1, “5-membered n-heterocyclic compounds with hypoglycemic and hypolipidemic activity” (Takeda Pharmaceutical Company Limited, priority 1999, dated 2007).

In general, melting point refers to the temperature of the solid-liquid transition.

Structures are written as SMILES.

`Cc1oc(-c2ccccc2)nc1COc1ccc(Cn2cc(CC(=O)O)c(-c3ccccc3)n2)cn1` [Example 308, [1-[6-(5-methyl-2-phenyl-4-oxazolylmethoxy)-3-pyridylmethyl]-3-phenyl-1H-pyrazol-4-yl]acetic acid] returned a melting point of 144 to 145 °C.
The compound `CCOC(=O)c1cn(Cc2ccc(OCc3ccccc3)cc2)nc1-c1ccc(F)cc1` [Example 280, ethyl 1-(4-benzyloxybenzyl)-3-(4-fluorophenyl)-1H-pyrazole-4-carboxylate] showed a melting point of 103 to 104 °C.
To `CCOC(=O)CCc1cn(Cc2cccnc2OCc2csc(-c3ccccc3)n2)nc1-c1ccccc1` [Example 299, ethyl 3-[3-phenyl-1-[2-(2-phenyl-4-thiazolylmethoxy)-3-pyridylmethyl]-1H-pyrazol-4-yl]propionate] belongs 88 to 89 °C.
To `CCOC(=O)/C=C/c1cn(Cc2ccc(OCc3ccccc3)cc2)nc1-c1ccc(F)cc1` [Example 281, ethyl (E)-3-[1-(4-benzyloxybenzyl)-3-(4-fluorophenyl)-1H-pyrazol-4-yl]propenoate] belongs 113 to 114 °C; to `O=C(O)CCc1cn(Cc2ccc(OCc3csc(-c4cnccn4)n3)cc2)cc1-c1ccccc1` [Example 16, 3-[4-phenyl-1-[4-[2-(2-pyrazinyl)-4-thiazolylmethoxy]benzyl]-3-pyrrolyl]propionic acid], 137 to 138 °C; to `Cc1oc(-c2ccco2)nc1COc1ccc(Cn2cc(CCC(=O)O)c(-c3ccc(F)cc3)n2)cc1` [Example 105, 3-[3-(4-fluorophenyl)-1-[4-[2-(2-furyl)-5-methyl-4-oxazolylmethoxy)benzyl]-1H-pyrazol-4-yl]propionic acid], 125 to 126 °C.
Next, `Cc1oc(-c2ccccc2)nc1COc1ccc(Cn2cc(CCC(=O)O)c(C(C)C)n2)cc1` [Example 108, 3-[3-isopropyl-1-[4-(5-methyl-2-phenyl-4-oxazolylmethoxy)benzyl]-1H-pyrazol-4-yl]propionic acid]: 97 to 98 °C.
For `CCOc1cc(Cn2cc(CCC(=O)O)c(-c3ccccc3)c2)cc(OCc2csc(-c3ccccc3)n2)c1` [Example 274, 3-[1-[3-ethoxy-5-(2-phenyl-4-thiazolylmethoxy)benzyl]-4-phenyl-3-pyrrolyl]propionic acid], the melting point is 109 to 110 °C.
To `O=C(O)CCc1cn(Cc2ccc(OCc3ccsc3)cc2)cc1-c1ccccc1` [Example 22, 3-[4-phenyl-1-[4-(3-thienylmethoxy)benzyl]-3-pyrrolyl]propionic acid] belongs 118 to 119 °C; to `CCCc1c(CCC(=O)O)cnn1Cc1ccc(OCc2nc(-c3ccccc3)oc2C)cc1` [Example 112, 3-[1-[4-(5-methyl-2-phenyl-4-oxazolylmethoxy)benzyl]-5-propyl-1H-pyrazol-4-yl]propionic acid], 158 to 159 °C.
To `O=C(O)CCc1cn(Cc2ccc(OCc3ccc(-c4ccccc4)nc3)cc2)nc1-c1ccccc1` [Example 288, 3-[3-phenyl-1-[4-(6-phenyl-3-pyridylmethoxy)benzyl]-1H-pyrazol-4-yl]propionic acid] belongs 155 to 156 °C; to `O=C(O)CCc1cn(Cc2ccc(OCc3ccccc3)cc2)cc1-c1ccccc1` [Example 10, 3-[1-(4-benzyloxybenzyl)-4-phenyl-3-pyrrolyl]propionic acid], 130 to 131 °C.
Next, `COc1cc(COc2nn(Cc3ccc(Oc4ccccc4)cc3)cc2C(=O)O)ccc1OCc1nc(-c2ccco2)oc1C` [Example 322, 3-[4-[2-(2-furyl)-5-methyl-4-oxazolylmethoxy]-3-methoxybenzyloxy]-1-(4-phenoxybenzyl)-1H-pyrazole-4-carboxylic acid]: 153 to 154 °C; `Cc1oc(-c2ccccc2)nc1COc1ccc(Cn2cc(CCC(=O)O)c(-c3ccccn3)c2)cc1` [Example 64, 3-[1-[4-(5-methyl-2-phenyl-4-oxazolylmethoxy)benzyl]-4-(2-pyridyl)-3-pyrrolyl]propionic acid]: 155 to 156 °C; `CCOc1nn(Cc2ccc(OC)c(OCc3nc(-c4ccccc4)oc3C)c2)cc1CCC(=O)O` [Example 215, 3-[3-ethoxy-1-[4-methoxy-3-(5-methyl-2-phenyl-4-oxazolylmethoxy)benzyl]-1H-pyrazol-4-yl]propionic acid]: 136 to 137 °C.
`O=C(O)CCc1cn(Cc2ccc(OCc3ccc(-c4ccccc4)cn3)cc2)nc1-c1ccc(F)cc1` [Example 296, 3-[3-(4-fluorophenyl)-1-[4-(5-phenyl-2-pyridylmethoxy)benzyl]-1H-pyrazol-4-yl]propionic acid] yielded a melting point of 162 to 163 °C.
To `Cc1oc(-c2ccccc2)nc1COc1nn(Cc2ccc(Oc3ccccc3)cc2)cc1C(N)=O` [Example 331, 3-(5-methyl-2-phenyl-4-oxazolylmethoxy)-1-(4-phenoxybenzyl)-1H-pyrazole-4-carbamide] belongs 158 to 159 °C; to `CCOc1nn(Cc2cccc(OCCn3ncc4ccccc4c3=O)c2)cc1CCC(=O)O` [Example 221, 3-[3-ethoxy-1-[3-[2-[1-oxophthalazin-2(1H)-yl]ethoxy]benzyl]-1H-pyrazol-4-yl]propionic acid], 146 to 147 °C.
To `O=C(O)c1cn(Cc2cccc(Oc3ccccc3)c2)nc1-c1ccccc1` [Example 50, 1-(3-phenoxybenzyl)-3-phenyl-1H-pyrazole-4-carboxylic acid] belongs 148 to 149 °C; to `Cc1oc(-c2ccccc2)nc1COc1ccc(Cn2cc(CCCC(=O)O)c(-c3ccccc3)n2)cc1` [Example 96, 4-[1-[4-(5-methyl-2-phenyl-4-oxazolylmethoxy)benzyl]-3-phenyl-1H-pyrazole-4-yl]butanoic acid], 118 to 119 °C; to `CCOc1nn(Cc2ccc(OCc3nc(-c4ccccc4)oc3C)cc2)cc1CC(=O)O` [Example 260, 3-ethoxy-1-[4-(5-methyl-2-phenyl-4-oxazolylmethoxy)benzyl]-1H-pyrazol-4-ylacetic acid], 125 to 126 °C.
Consider `Cc1oc(-c2ccccc2)nc1COc1ccc2cc(Cn3cc(CCC(=O)O)c(-c4ccccc4)c3)ccc2c1` [Example 54, 3-[1-[6-(5-methyl-2-phenyl-4-oxazolylmethoxy)-2-naphthylmethyl]-4-phenyl-3-pyrrolyl]propionic acid], for which the melting point was in the range of 122 to 123 °C.
Consider `CCOc1nn(Cc2ccc(OCc3nc(-c4ccccc4)oc3C)cn2)cc1CCC(=O)O` [Example 258, 3-[3-ethoxy-1-[5-(5-methyl-2-phenyl-4-oxazolylmethoxy)-2-pyridylmethyl]-1H-pyrazol-4-yl]propionic acid], for which the melting point was in the range of 133 to 134 °C.
The compound `COc1cc(Cn2cc(CCC(=O)O)c(-c3ccccc3)c2)cc(OCc2csc(-c3cnccn3)n2)c1` [Example 71, 3-[1-[3-methoxy-5-[2-(2-pyrazinyl)-4-thiazolylmethoxy]benzyl]-4-phenyl-3-pyrrolyl]propionic acid] came in with a melting point of 111 to 112 °C.
Next, `O=C(O)CCc1cn(Cc2ccc(OCc3csc(-c4cccnc4)n3)cc2)cc1-c1ccccc1` [Example 46, 3-[4-phenyl-1-[4-[2-(3-pyridyl)-4-thiazolylmethoxy]benzyl]-3-pyrrolyl]propionic acid]: 118 to 119 °C.
To `Cc1oc(-c2ccncc2)nc1COc1ccc(Cn2cc(CCC(=O)O)c(-c3ccccc3)n2)cc1` [Example 83, 3-[1-[4-[5-methyl-2-(4-pyridyl)-4-oxazolylmethoxy]benzyl]-3-phenyl-1H-pyrazol-4-yl]propionic acid] belongs 154 to 155 °C.
Next, `Cc1oc(-c2ccccc2)nc1CCOc1ccc(Cn2cc(CCC(=O)O)c(-c3ccccc3)n2)cc1` [Example 114, 3-[1-[4-[2-(5-methyl-2-phenyl-4-oxazolyl)ethoxy]benzyl]-3-phenyl-1H-pyrazol-4-yl]propionic acid]: 142 to 143 °C; `COC(=O)Cc1cn(Cc2ccc(OCc3ccccc3)cc2)nc1-c1ccc(F)cc1` [Example 318, methyl [1-(4-benzyloxybenzyl)-3-(4-fluorophenyl)-1H-pyrazol-4-yl]acetate]: 58 to 59 °C; `Cc1ncccc1COc1ccc2cc(Cn3cc(CCC(=O)O)c(-c4ccccc4)c3)ccc2c1` [Example 60, 3-[1-[6-(2-methyl-3-pyridylmethoxy)-2-naphthylmethyl]-4-phenyl-3-pyrrolyl]propionic acid]: 163 to 164 °C.
For the compound `COc1ccc(-c2nn(Cc3ccc(OCc4nc(-c5ccccc5)oc4C)cc3)cc2CCC(=O)O)cc1` [Example 102, 3-[3-(4-methoxyphenyl)-1-[4-(5-methyl-2-phenyl-4-oxazolylmethoxy)benzyl]-1H-pyrazol-4-yl]propionic acid], the melting point lay within 137 to 138 °C.
Next, `O=C(O)CCc1cn(Cc2ccc(OCc3noc(-c4ccccc4)n3)cc2)nc1-c1ccccc1` [Example 85, 3-[3-phenyl-1-[4-(5-phenyl-1,2,4-oxadiazole-3-ylmethoxy)benzyl]-1H-pyrazol-4-yl]propionic acid]: 166 to 167 °C; `CCOC(=O)c1cn(Cc2ccc(Oc3ccccc3)cc2)nc1OCc1nc(-c2ccccc2)oc1C` [Example 329, ethyl 3-(5-methyl-2-phenyl-4-oxazolylmethoxy)-1-(4-phenoxybenzyl)-1H-pyrazole-4-carboxylate]: 96 to 97 °C.
Next, `Cc1sc(-c2ccccc2)nc1COc1ccc(Cn2cc(CC(=O)O)c(-c3ccccc3)n2)cn1` [Example 312, [1-[6-(5-methyl-2-phenyl-4-thiazolylmethoxy)-3-pyridylmethyl]-3-phenyl-1H-pyrazol-4-yl]acetic acid]: 140 to 141 °C; `O=C(O)CCc1cn(Cc2ccc(OCc3ccccc3)cc2)nc1-c1ccccc1` [Example 77, 3-[1-(4-benzyloxybenzyl)-3-phenyl-1H-pyrazol-4-yl]propionic acid]: 147 to 148 °C; `O=C(O)CCc1cn(Cc2ccc(OCc3csc(-c4ccccc4)n3)cc2)nc1-c1ccccc1` [Example 304, 3-[3-phenyl-1-[4-(2-phenyl-4-thiazolylmethoxy)benzyl]-1H-pyrazol-4-yl]propionic acid]: 132 to 133 °C.
